# System: HEK293 cells
# Assay: Resazurin based cell viability assay, Nutlin-3a
# Settings: 72 h incubation, HEK293 and HEK293_CMKLR1-eYFP
# Protocol: performed in DMEM with 10% FBS due to its higher pH buffering capacity compared to DMEM/F12 with […]
# Calcium flux assay was performed with cells expressing CMKLR1 and the chimeric G protein Δ6Gαqi4myr.
# The stably transfected COS-7_CMKLR1-eYFP_ Δ6Gαqi4myr cells were seeded at 25,000 cells per well into poly-ᴅ-lysine-coated 96-well plates (black µCLEAR, Greiner). The next day, cells were incubated with 2.3 µM Fluo-2-AM (Abcam) and 0.06% (v/v) Pluronic-F127 (Sigma) in assay buffer (2.5 mM probenecid (Sigma), 20 mM 4-(2-hydroxyethyl)-1-piperazineethanesulfonic acid (HEPES, Sigma) in Hanks' Balanced Salt Solution (HBSS, Biowest), pH 7.5) for 1 h. This solution was replaced by assay buffer, and basal Ca2+ signal (λex = 485 nm, λem = 525 nm) was measured for 20 s with a Flexstation 3 plate reader (Molecular Devices). Peptide dilutions were added, and the Ca2+ response was measured for 40 s. The maximum signal over baseline was calculated and normalized to peptide 1 (N3-cC9). Non-linear regression was performed using Prism 10 (GraphPad). Experiments were performed in technical duplicates and at least […]
# Cells were then washed and a resazurin-based cell viability assay was performed. […] After 2h incubation, cell viability wa s measured using the fluorescence of resorufin (λex = 550 nm, λem = 595 nm). […]
# Peptide internalization was evaluated by fluorescence microscopy. […]
structure (smiles),measurement,value
COc1ccc(C2=N[C@@H](c3ccc(Cl)cc3)[C@@H](c3ccc(Cl)cc3)N2C(=O)N2CCNC(=O)C2)c(OC(C)C)c1 [nutlin-3a],cytotoxicity,noncytotoxic response

# — publication PMC12814185, “Receptor-Mediated Shuttling of a D‑Amino Acid Peptide Achieves High Nanomolar Cytosolic Concentrations” (Journal of the American Chemical Society, 2025)
